How the values were obtained:
[1] = Plasma concentration of Compound C after intravenous and oral administration in rats; format: in vivo, rat; conditions: intravenous 0.3 and 1 mg/kg versus oral 3 and 10 mg/kg, respectively
Method: Due to technical feasibility of the experiment, anesthetized rats were used for EMG recording of the diaphragm. Compound C was administered intravenously to anesthetized rats in this experiment. To understand the relationship between the plasma effective concentration of Compound C for arousal and that for activation of the diaphragm, plasma concentration of Compound C after intravenous administration was measured. The maximum plasma concentrations of Compound C after intravenous administration at 0.3 and 1 mg/kg were similar to those after oral administration at 3 and 10 mg/kg, respectively.

[2] = tested on: patients with obstructive sleep apnea; assay: Phase 1b crossover study in obstructive sleep apnea: upper airway collapsibility index (UACI) during wakefulness; format: in vivo, human
Method: A phase 1b, randomized, double-blind, placebo-controlled, 3-period crossover study was conducted to evaluate the safety, tolerability, pharmacodynamic, and pharmacokinetic effects of overnight intravenous COMPOUND A in patients with obstructive sleep apnea (OSA). This study was planned to further evaluate COMPOUND A intravenous administration (IV) in adults with OSA, hypothesizing that nonwake-promoting exposures of COMPOUND A would increase genioglossal muscle tone and increase airway patency via the increasing activity of hypoglossal motoneurons. The main goal of this study was to evaluate the mechanistic potential of OX2R agonism for treatment of OSA using COMPOUND A IV infusion to determine appropriate use in future trials with an oral OX2R agonist.
Eligible participants were randomly assigned (in a double-blinded manner) to 1 of 6 treatment sequences. In each treatment period, participants underwent 3 UACI assessments, a 10-minute evaluation that tested the key biological mechanism that causes OSA (as described by Osman, A. M., et al., 2019, Sleep, 42 (7), 1-10), followed by an overnight polysomnography (PSG). After the first baseline UACI assessment (U1), an IV infusion regimen of COMPOUND A or placebo was administered over approximately 10 hours to achieve specific plasma concentrations to evaluate the effect of COMPOUND A on the UACI and PSG metrics. […]

Row | maximum plasma concentrations after intravenous administration compared with oral administration [1] | Structure (SMILES) | upper airway collapsibility as measured by UACI [2]
1 | similar | CC(C)(O)C(=O)N1CC(F)(F)[C@H](NS(C)(=O)=O)[C@@H]1Cc1cccc(-c2cc(F)cc(F)c2)c1F [Compound C, N-{(2S,3R)-4,4-difluoro-1-(2-hydroxy-2-methylpropanoyl)-2-[(2,3′,5′-trifluoro[1,1′-biphenyl]-3-yl)methyl]pyrrolidin-3-yl}methanesulfonamide] | –
2 | – | COC(=O)N1CCC[C@H](NS(C)(=O)=O)[C@@H]1CO[C@H]1CC[C@@H](c2ccccc2)CC1 (relative stereo) [Compound A, methyl(2R,3S)-3-((methylsulfonyl)amino)-2-(((cis-4-phenylcyclohexyl)oxy)methyl) piperidine-1-carboxylate] | no consistent improvement

Reference: patent US20260256753A1, “USE OF AN OREXIN 2 RECEPTOR AGONIST FOR IMPROVING RESPIRATORY FUNCTION DURING SLEEP” (TAKEDA PHARMACEUTICAL COMPANY LIMITED, priority 2023, published 2026)
